Measurements taken from article PMC6503653 (European journal of medicinal chemistry, 2018).

Experiments:
[1] = system: E. coli and the human cytosolic A-site; experiment: Selectivity factor, E. coli versus human cytosolic A-site; type: binding; conditions: 5.75 × IC50(human)/IC50(E. coli); above 5.75 = selectivity to bacterial A-site
[2] = system: 4 MRSA NEO-resistant strains; experiment: MIC against the MRSA NEO-resistant strains; type: cell-based, Staphylococcus aureus
E. coli H4H = experiment: MIC and growth inhibition, microdilution; type: cell-based, Escherichia coli; conditions: concentration not given
APH(2″)-Ia = APH(2″)-Ia (Staphylococcus aureus, UniProt P0A0C1); experiment: AME modification of conjugates, APH; type: biochemical
APH(2″)-Ia, sequence (P0A0C1 whole entry): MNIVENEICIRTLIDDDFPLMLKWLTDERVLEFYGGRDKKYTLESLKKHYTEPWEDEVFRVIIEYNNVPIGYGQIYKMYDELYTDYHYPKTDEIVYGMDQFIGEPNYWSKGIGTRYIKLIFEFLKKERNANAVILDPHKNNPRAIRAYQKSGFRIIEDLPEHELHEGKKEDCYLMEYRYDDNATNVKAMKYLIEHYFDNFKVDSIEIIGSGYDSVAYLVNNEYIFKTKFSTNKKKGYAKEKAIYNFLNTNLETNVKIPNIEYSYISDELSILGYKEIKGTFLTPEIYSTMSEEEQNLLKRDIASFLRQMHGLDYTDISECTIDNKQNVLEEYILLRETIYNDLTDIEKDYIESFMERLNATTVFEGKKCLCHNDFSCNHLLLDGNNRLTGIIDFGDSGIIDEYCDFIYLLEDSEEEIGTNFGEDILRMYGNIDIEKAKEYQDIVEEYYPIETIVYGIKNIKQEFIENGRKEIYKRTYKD

L1-stage C. elegans = experiment: Toxicity in C. elegans, MTT assay; type: in vivo, Caenorhabditis elegans; conditions: lowest concentrations used (3.13 – 1.56 μM), 24 h
rRNA A-site = conditions: read-out: IC50, F-NEO screening test; range over rRNA A-sites; cited from earlier work

NC[C@@H]1O[C@H](O[C@H]2[C@@H](O)[C@H](O[C@@H]3[C@@H](O)[C@H](N)C[C@H](N)[C@H]3O[C@H]3O[C@H](CN)[C@@H](O)[C@H](O)[C@H]3N)O[C@@H]2CNC(=O)Cc2ccc3ccc4cccc5ccc2c3c45)[C@H](N)[C@@H](O)[C@@H]1O [Compound 10]
Selectivity factor [1]: 7.12

NC[C@@H]1O[C@H](O[C@H]2[C@@H](O)[C@H](O[C@@H]3[C@@H](O)[C@H](N)C[C@H](N)[C@H]3O[C@H]3O[C@H](CN)[C@@H](O)[C@H](O)[C@H]3N)O[C@@H]2CNC(=O)CCc2ccc3ccc4cccc5ccc2c3c45)[C@H](N)[C@@H](O)[C@@H]1O [Compound 11]
Selectivity factor [1]: 8.29

NC[C@@H]1O[C@H](O[C@H]2[C@@H](O)[C@H](O[C@@H]3[C@@H](O)[C@H](N)C[C@H](N)[C@H]3O[C@H]3O[C@H](CN)[C@@H](O)[C@H](O)[C@H]3N)O[C@@H]2CNC(=O)CCCc2ccc3ccc4cccc5ccc2c3c45)[C@H](N)[C@@H](O)[C@@H]1O [Compound 12]
MIC values times lower than that of NEO [2]: 4-16 times
Selectivity factor [1]: 6.76

NC[C@@H]1O[C@H](O[C@H]2[C@@H](O)[C@H](O[C@@H]3[C@@H](O)[C@H](N)C[C@H](N)[C@H]3O[C@H]3O[C@H](CN)[C@@H](O)[C@H](O)[C@H]3N)O[C@@H]2CSCCNC(=O)Cc2ccc3ccc4cccc5ccc2c3c45)[C@H](N)[C@@H](O)[C@@H]1O [Compound 13]
MIC values times lower than that of NEO [2]: 4-16 times
Selectivity factor [1]: 5.87

NC[C@@H]1O[C@H](O[C@H]2[C@@H](O)[C@H](O[C@@H]3[C@@H](O)[C@H](N)C[C@H](N)[C@H]3O[C@H]3O[C@H](CN)[C@@H](O)[C@H](O)[C@H]3N)O[C@@H]2CSCCNC(=O)CCc2ccc3ccc4cccc5ccc2c3c45)[C@H](N)[C@@H](O)[C@@H]1O [Compound 14]
Selectivity factor [1]: 6.14

NC[C@@H]1O[C@H](O[C@H]2[C@@H](O)[C@H](O[C@@H]3[C@@H](O)[C@H](N)C[C@H](N)[C@H]3O[C@H]3O[C@H](CN)[C@@H](O)[C@H](O)[C@H]3N)O[C@@H]2CSCCNC(=O)CCCc2ccc3ccc4cccc5ccc2c3c45)[C@H](N)[C@@H](O)[C@@H]1O [Compound 15]
MIC values times lower than that of NEO [2]: 4-16 times
reduction in growth / growth inhibition (E. coli H4H): * A 30% reduction in growth was observed for compounds 15 and 16 with E. coli H4H.
Selectivity factor [1]: 6.80
modification by APH(2″)-Ia relative to NEO (APH(2″)-Ia): increased activity

NC[C@@H]1O[C@H](O[C@H]2[C@@H](O)[C@H](O[C@@H]3[C@@H](O)[C@H](N)C[C@H](N)[C@H]3O[C@H]3O[C@H](CN)[C@@H](O)[C@H](O)[C@H]3N)O[C@@H]2CSCCNC(=S)NCCCCCCNC(=O)CCCc2ccc3ccc4cccc5ccc2c3c45)[C@H](N)[C@@H](O)[C@@H]1O [Compound 16]
MIC values times lower than that of NEO [2]: 4-16 times
reduction in growth / growth inhibition (E. coli H4H): * A 30% reduction in growth was observed for compounds 15 and 16 with E. coli H4H.
Selectivity factor [1]: 5.70

NC[C@@H]1O[C@H](O[C@H]2[C@@H](O)[C@H](O[C@@H]3[C@@H](O)[C@H](N)C[C@H](N)[C@H]3O[C@H]3O[C@H](CN)[C@@H](O)[C@H](O)[C@H]3N)O[C@@H]2CO)[C@H](N)[C@@H](O)[C@@H]1O [NEO, Neomycin B]
toxicity / larvae viability compared with the untreated control (L1-stage C. elegans): no significant difference
IC50 (rRNA A-site): 68 to 114 nM
